Assay [1] concerns 107 antibody. The assay can be described thus: FACS of antibody binding to peptides pulsed onto DQ2.5+ Raji cells, 107 antibody. It counts as cell-based. Conditions: 50 μM peptide pulsed onto human DQ2.5+ Raji cells. The procedure:
(§1) Assessment of antibody binding to the A0A0E3SZN6_TRIUA epitope candidate. […] The indicated peptides (50 μM) were pulsed onto human DQ2.5*Raji cells and antibody binding was tested in FACS as described (B).
(§2) Assessment of antibody binding to the physiological relevant forms of the A0A0E3SZN6_TRIUA epitope candidate. The T. urartuA0A0E3SZN6_TRIUA (A) and T. aestivum Q9M4L6_WHEAT (B) sequences were in silico digested with tryspin and chymotrypsin, and the relevant digested fragments shown underlined (A and B). […] The known P positions are indicated (C). The indicated peptides were pulsed (50 μM) onto human DQ2.5*Raji cells and antibody binding was tested in FACS as described (D).
(§3) To identify putative gliadin-derived sequences different from, but with similarity to, the 30 DOQ.2.5-glia-α1a epitope (PFPQP{right arrow over (E)}LPY (SEQ ID NO:4)), the UniProtKB protein database was searched using the ScanProsite tool (https://prosite.expasyorg/scanprosite/). […] More specifically, we fixed the proline (P) in p1, the glutamine (Q) in p6, the tyrosine (Y) in p9, and P was disallowed in the position p10 after the p9 Y (underlined). To focus the output of the searches, we restricted the output to the Triticum taxonomic group. […] In some cases, Q residues were exchanged with glutamate (E) in the peptide synthesis in order to mimic positional deamidation.

In assay [2] the test system is 4.7C antibody. The assay can be described thus: FACS of antibody binding to peptides pulsed onto DQ2.5+ Raji cells, 4.7C antibody. The class given is cell-based. Conditions: 50 μM peptide pulsed onto human DQ2.5+ Raji cells. On the procedure: as §1, §2, §3
Sequence of 4.7C antibody (as listed by the source, other chains not shown): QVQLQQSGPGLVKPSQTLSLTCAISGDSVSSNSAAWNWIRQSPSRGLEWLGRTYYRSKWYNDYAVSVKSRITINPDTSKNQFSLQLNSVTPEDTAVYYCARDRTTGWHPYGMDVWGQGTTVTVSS
Sequence of 4.7C antibody (as listed by the source, other chains not shown): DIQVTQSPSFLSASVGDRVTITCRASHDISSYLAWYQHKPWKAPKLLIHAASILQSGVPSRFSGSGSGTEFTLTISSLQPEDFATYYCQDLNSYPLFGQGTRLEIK
Assay [3] has as its system T cells in HLA-DQ2.5 typed PBMCs. The assay is described as follows: Intracellular IFN-γ flow assay of peptide-stimulated PBMCs. The class given is cell-based, human. Conditions: for expansion of IFN-γ positive cells in the CD3+/CD4− cell population / expansion of IFN-γ positive CD4 T cells, CeD donor: 20 μM peptide; for expansion of IFN-γ positive cells in the CD3+/CD4− cell population / expansion of IFN-γ positive CD4 T cells, CeD donor / presence of response in tested CeD PBMC material / responses in healthy controls: 48h; for expansion of IFN-γ positive cells in the CD3+/CD4− cell population: FIG. 14C; for peptide reactivity, CeD donor 595: no statistical difference; for expansion of IFN-γ positive CD4 T cells, CeD donor: CeD donor 595, average, FIG. 14B; for presence of response in tested CeD PBMC material: CeD donors 585, 595 and 600; for presence of response in tested CeD PBMC material / responses in healthy controls: 20 μM; for responses in healthy controls: two HCs (557 and 558), FIG. 15B. The source says:
Intracellular IFNγ flow assessment of CD4 T cell peptide stimulatory capacity using PBMCs. Cryopreserved HLA-DQ2.5 typed PBMCs from confirmed healthy controls (HC) and CeD patients were purchased (HemaCare-Cellero) and used in autologous in vitro T cell peptide stimulation assays followed by intracellular IFNγ staining in flow. (A) PBMCs from CeD donor 595 were used to set intracellular IFNγ baseline detection gates on CD3/CD4 T cells using anti-IFNγ-PE. (B and C) Bar graph representing intracellular IFNγ detection in CD4+/IFNγ+(B) and CD4−/IFNγ+(C) gates as illustrated in A. PBMCs from CeD donor 595 and HC 575 were stimulated with 20 μM DQ2.5-glia 33-mer (N-[…]-C(SEQ ID NO:59)) and A0A0E3SZN6_p6E_long (N-[…]-C(SEQ ID NO:30)), for 48h followed by intracellular T cell IFNγ detection.
Intracellular IFN-γ flow assessment of CD4 T cell peptide stimulatory capacity using PBMCs. Cryopreserved HLA-DQ2.5 typed PBMCs from confirmed healthy controls (HC) and CeD patients were purchased (HemaCare-Cellero) and used in autologous in vitro T cell peptide stimulation assays followed by intracellular IFN-γ staining in flow. Intracellular IFN-γ baseline detection gates on CD3/CD4 T cells using anti-IFN-γ-PE were set as in FIG. 14.
PBMCs from CeD donors (585, 595 and 600) and HCs (557 and 558) were stimulated with 20 μM DQ2.5-glia 33-mer (N-[…]-C(SEQ ID NO:59)) and A0A0E3SZN6_p6E_long (N-[…]-C(SEQ ID NO:30)), for 48h followed by intracellular T cell IFN-γ detection (A and B). Values are presented as mean values and ±SEM.
Peptide-stimulated PBMCs were assessed for intracellular IFN-γ following reagents and the standard protocol from BioLegend (https://www.biolegend.com/). Briefly, cryopreserved human HLA-DQ2.5^+ PBMCs (HemaCare-Cellero) where gently thawed and washed in ice-cold PBS before resuspended into RPMI1640 supplemented with 10% FCS (v/v) before volumes of 1 ml (about 2×10^7 cells) were aliquoted into a 24-well microtiter plate (NUNC). One set of wells received either 20 μM of peptide (either A0A0E3SZN6_p6E_long ([…] (SEQ ID NO:30)) or 33-mer ([…] ([…]))). […] The cells were grown at standard conditions at 37° C. for 36h before Brefaldin A (BioLegend) and Monensin (BioLegend) was added, and incubation continued for another 12 h. The cells were then assessed for intracellular IFN-γ by flow. Data was acquired on a BD Accuri C6 cytometer (BD Biosciences) and analyzed using FlowJo software V10 (Tree Star).

Assay [4] has the same test system. Described as above. Conditions: HC donor 557; 20 μM peptide; 48h; FIG. 14B. The class given is cell-based, human.
The target in assay [5] is T1, chymotrypsin (Bos taurus, UniProt P00766).
T1 construct: purchased Sigma; host or cells: substrate gliadin: E. coli BL21 (DE3)pLysS, made by Genscript
The assay is described as follows: In vitro chymotrypsin digest and mass spectrometry of recombinant gliadin. Conditions: chymotrypsin 200:1 (w:w), 37° C., 24h; MS; FIG. 9E. From the text:
Assessment of in vitro chymotrypsin proteolysis of the A0A0E3SZN6_TRIUA protein. The T. aestivum Q9M4L6_WHEAT (A), T. urartu A0A0E3SZN6_TRIUA (B) and T. aestivum Q9FUW7_WHEAT (C) proteins where produced and affinity purified from E. coli, followed by in vitro chymotrypsin digest and mass spectrometry analysis of the resulting peptide segments (D, E and F). The anticipated 9-mer core regions of the relevant epitopes are indicated by enumeration (D, E and F). Panel A: SDS-PAGE and Western blot analysis of Q9M4L6_WHEAT. Lane M1: Protein Marker, GenScript, Cat. No. M00516, Lane M2: Protein Marker, GenScript, Cat. No. M00521, Lane 1: BSA ([…]), Lane 2: Q9M4L6_WHEAT (Reducing condition, […]), Lane 3: Q9M4L6_WHEAT (Non-reducing condition, 2.00 μg), Lane 4: Q9M4L6_WHEAT (Reducing condition), Lane 5: Q9M4L6_WHEAT (Non-reducing condition), Primary antibody: Mouse-anti-His mAb (GenScript, Cat. No. A00186). Panel B: SDS-PAGE and Western blot analysis of A0A0E3SZN6_TRIUA. […]
Recombinant gliadins were in vitro chymotrypsin digested essentially as described (Molberg O, et al., Methods Mol Med. 2000; 41:105-24). […] MS spectra were analyzed by using the PEAKS studio software (Bioinformatics Solutions Inc.) searched against a custom databased made by the respective gliadin Uniprot accession codes.

Setting [6] is: A0A0E3SZN6 peptide versus 33-mer, FIG. 15A.

Sequence of 107 antibody (as listed by the source, other chains not shown): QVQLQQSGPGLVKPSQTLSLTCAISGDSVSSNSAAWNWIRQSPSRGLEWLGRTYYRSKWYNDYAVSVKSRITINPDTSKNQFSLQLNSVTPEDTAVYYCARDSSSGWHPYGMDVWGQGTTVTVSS

As to “PQPELPYPQPE (SEQ ID NO:57) [DQ2.5-glia-α2, reference compound]”, the “binding of 107 antibody to peptide-pulsed Raji cells (FACS)” value (from here on “binding of 107 antibody”) in assay [1] is listed as “No binding”. The “binding of 4.7C antibody to peptide-pulsed Raji cells (FACS)” value (from here on “binding of 4.7C antibody”) in assay [2] is “No binding”.
As to “PQQPYPEQQQPYGT (SEQ ID NO:62) [form of the peptide with E at position 4 of the 9-mer]”, the “binding of 107 antibody” value in assay [1] is on record as “not”.
Same read-out and setting: with PQQPYPQQQQPYGT (SEQ ID NO:24) the entry was “not”.
Consider PQQPYPEQEQPYGT (SEQ ID NO:63) [EE], for which the “binding of 107 antibody” value in assay [1] is “bind well”. Besides, the “binding of 4.7C antibody” value in assay [2] was “bind well”.
Consider “LQLQPFPQPELPYPQPELPYPQPELPYPQPQPF (SEQ ID NO:55) [33-mer, reference compound]”, for which, in assay [3], the “expansion of IFN-γ positive cells in the CD3+/CD4− cell population” value was “not seen”; the “expansion of IFN-γ positive CD4 T cells, CeD donor” value worked out at 4.2%; the “responses in healthy controls” value is “no responses”. Moreover, in assay [3] (setting [6]), the “peptide reactivity, CeD donor 585” value is “appeared to favor” and the “peptide reactivity, CeD donor 595” value was “about equal on both”. For the same substance, in assay [3] (FIG. 15A), the “presence of response in tested CeD PBMC material” value is given as 2/3. Besides, the “expansion of IFN-γ positive CD4 T cells, healthy control” value in assay [4] was “no such expansion”.
Regarding “A0A0E3SZN6_TRIUA: omega-gliadin protein of Triticum urartu (SEQ ID NO:1), produced recombinantly in E. coli (QPQQPYP)”, in assay [5], the “processing of the 9-mer core by chymotrypsin proteolysis” value is given as “no destructive processing was observed of the postulated novel 9-mer core peptide”.
As to “PYPQQEQPY (SEQ ID NO:25) [p6 deamidated 9-mer]”, in assay [1], the “binding of 107 antibody” value was “no binding”. In assay [2], the “binding of 4.7C antibody” value is “no binding”.
In the case of “QPQQPYPQQEQPYGTSL (SEQ ID NO:30) [A0A0E3SZN6 peptide]”, in assay [3], the “expansion of IFN-γ positive cells in the CD3+/CD4− cell population” value is on record as “not seen”; the “expansion of IFN-γ positive CD4 T cells, CeD donor” value worked out at 2.8%; the “responses in healthy controls” value is on record as “no responses”. In assay [3] (setting [6]), the “peptide reactivity, CeD donor 600” value is listed as “appeared to favor” and the “peptide reactivity, CeD donor 595” value is recorded as “about equal on both”. Further, the “presence of response in tested CeD PBMC material” value in assay [3] (FIG. 15A) is listed as 2/3. In assay [4], the “expansion of IFN-γ positive CD4 T cells, healthy control” value is given as “no such expansion”.
In the case of PQQPYPQQEQPYGT (SEQ ID NO:29), the “binding of 107 antibody” value in assay [1] is “bind well”. The “binding of 4.7C antibody” value in assay [2] was “bind well”.

For the origin of these results see patent US20240400692A1, “CELIAC DISEASE EPITOPES” (NEXTERA AS, priority 2021, published 2024).
